Results published in article PMC7832087 (European journal of medicinal chemistry, 2016).

Experiments:
[1] = target: T1, Top1 (Homo sapiens, UniProt P11387); assay: Top1 mediated DNA cleavage; format: biochemical; conditions: 117 bp oligonucleotide with Top1 cleavage sites
T1 sequence (P11387 1-765): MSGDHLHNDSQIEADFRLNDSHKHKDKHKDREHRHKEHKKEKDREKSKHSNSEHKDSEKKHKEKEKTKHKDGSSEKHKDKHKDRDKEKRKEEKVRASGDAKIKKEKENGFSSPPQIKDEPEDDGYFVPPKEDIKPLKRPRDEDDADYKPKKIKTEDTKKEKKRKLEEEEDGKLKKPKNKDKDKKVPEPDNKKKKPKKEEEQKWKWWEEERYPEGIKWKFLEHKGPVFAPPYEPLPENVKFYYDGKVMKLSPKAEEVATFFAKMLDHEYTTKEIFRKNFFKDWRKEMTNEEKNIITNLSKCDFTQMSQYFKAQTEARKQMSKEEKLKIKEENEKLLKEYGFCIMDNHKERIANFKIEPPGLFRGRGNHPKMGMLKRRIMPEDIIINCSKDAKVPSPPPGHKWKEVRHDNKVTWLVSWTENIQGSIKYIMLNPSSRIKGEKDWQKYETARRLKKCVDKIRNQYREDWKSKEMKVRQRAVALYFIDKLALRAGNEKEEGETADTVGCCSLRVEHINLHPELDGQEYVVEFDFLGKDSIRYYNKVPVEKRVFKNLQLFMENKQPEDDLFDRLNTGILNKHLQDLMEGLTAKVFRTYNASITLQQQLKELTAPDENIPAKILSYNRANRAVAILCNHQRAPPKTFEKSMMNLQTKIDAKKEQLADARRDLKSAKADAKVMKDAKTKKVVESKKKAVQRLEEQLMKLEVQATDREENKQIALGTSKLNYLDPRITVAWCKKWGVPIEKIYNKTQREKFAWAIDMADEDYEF

[2] = Water solubility of salts; format: physicochemical
[3] = system: K562 and K562/4 cells; assay: Intracellular drug accumulation; format: cell-based, human; conditions: 1 μM, 1 h to 24 h
[4] = system: HCT116 and HCT116p53KO cells; assay: Annexin V-FITC / PI staining; format: cell-based, human; conditions: 1 μM, 24 h
[5] = system: donor peripheral blood lymphocytes; assay: Cytotoxicity for donor lymphocytes; format: cell-based; conditions: data not shown
[6] = target: Top2 (Homo sapiens, UniProt P11388); assay: Top2 DNA relaxation assay; format: biochemical
Top2, sequence (P11388 whole entry, species assumed): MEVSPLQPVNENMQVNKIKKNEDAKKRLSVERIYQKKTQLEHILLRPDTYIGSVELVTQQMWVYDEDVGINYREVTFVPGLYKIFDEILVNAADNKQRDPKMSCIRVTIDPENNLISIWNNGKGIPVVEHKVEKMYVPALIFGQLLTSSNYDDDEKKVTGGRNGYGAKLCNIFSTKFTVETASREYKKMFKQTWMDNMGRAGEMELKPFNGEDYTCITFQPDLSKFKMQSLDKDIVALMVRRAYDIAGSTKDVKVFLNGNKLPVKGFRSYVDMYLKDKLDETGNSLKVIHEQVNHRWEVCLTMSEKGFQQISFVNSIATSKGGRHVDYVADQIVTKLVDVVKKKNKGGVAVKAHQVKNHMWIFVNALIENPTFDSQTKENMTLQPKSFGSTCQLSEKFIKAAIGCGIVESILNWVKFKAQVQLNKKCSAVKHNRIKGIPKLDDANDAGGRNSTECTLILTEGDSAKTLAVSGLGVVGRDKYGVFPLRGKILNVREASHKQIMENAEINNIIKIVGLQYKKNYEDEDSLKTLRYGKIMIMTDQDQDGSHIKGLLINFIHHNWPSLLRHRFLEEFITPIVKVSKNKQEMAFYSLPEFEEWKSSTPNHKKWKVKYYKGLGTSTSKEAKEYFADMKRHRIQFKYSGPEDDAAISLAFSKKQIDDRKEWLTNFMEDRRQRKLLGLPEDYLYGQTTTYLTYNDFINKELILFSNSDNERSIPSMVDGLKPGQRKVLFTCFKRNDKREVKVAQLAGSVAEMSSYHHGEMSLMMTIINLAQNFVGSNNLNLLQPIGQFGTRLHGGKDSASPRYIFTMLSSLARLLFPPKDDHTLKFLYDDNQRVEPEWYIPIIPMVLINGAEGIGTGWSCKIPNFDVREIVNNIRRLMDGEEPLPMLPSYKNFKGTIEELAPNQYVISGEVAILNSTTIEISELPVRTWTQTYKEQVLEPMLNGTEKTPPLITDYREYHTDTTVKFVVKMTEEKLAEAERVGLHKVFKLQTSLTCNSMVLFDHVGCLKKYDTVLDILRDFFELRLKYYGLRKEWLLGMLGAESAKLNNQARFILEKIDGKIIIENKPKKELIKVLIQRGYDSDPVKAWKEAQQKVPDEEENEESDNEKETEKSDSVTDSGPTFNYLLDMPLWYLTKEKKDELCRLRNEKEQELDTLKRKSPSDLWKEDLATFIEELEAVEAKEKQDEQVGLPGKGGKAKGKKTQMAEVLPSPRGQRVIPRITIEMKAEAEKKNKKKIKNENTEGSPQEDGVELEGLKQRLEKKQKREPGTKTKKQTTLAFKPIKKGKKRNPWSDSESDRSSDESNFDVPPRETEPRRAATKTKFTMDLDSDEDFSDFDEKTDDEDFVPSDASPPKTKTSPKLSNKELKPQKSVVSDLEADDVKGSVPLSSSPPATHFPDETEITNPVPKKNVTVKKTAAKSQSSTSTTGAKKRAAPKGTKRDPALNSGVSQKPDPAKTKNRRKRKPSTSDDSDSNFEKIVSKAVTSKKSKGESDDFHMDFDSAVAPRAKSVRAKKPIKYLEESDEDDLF

[7] = system: Top1; assay: Top1 DNA relaxation assay; format: biochemical; conditions: no influence at ≤1 μM, effect at 5 μM and 10 μM
[8] = system: 364 human protein kinases; assay: In vitro kinase panel; format: biochemical
[9] = system: i.p. transplanted P388 leukemia; assay: Antitumor efficacy, i.p. transplanted P388 leukemia
[10] = system: i.p. transplanted P388 leukemia; conditions: similar treatment schedule, total dose 150 mg/kg for five days; cited from earlier work
[11] = target: Aurora B (Homo sapiens, UniProt Q96GD4); assay: In vitro kinase assay, Aurora B; format: biochemical
Aurora B, sequence (Q96GD4 whole entry): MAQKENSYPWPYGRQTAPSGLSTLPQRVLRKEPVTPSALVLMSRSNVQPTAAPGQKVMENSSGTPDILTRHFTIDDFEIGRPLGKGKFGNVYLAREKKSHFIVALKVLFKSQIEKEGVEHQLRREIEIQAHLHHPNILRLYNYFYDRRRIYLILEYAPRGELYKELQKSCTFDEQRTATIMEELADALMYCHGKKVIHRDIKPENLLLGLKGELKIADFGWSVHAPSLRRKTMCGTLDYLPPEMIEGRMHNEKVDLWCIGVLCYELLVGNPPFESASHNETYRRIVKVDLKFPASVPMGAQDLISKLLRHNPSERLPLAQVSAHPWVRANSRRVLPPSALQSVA

SMILES: CC[C@@]1(O)C(=O)OCc2c1cc1n(c2=O)Cc2cc3ccccc3nc2-1 [CPT, camptothecin]
- Top1 mediated specific DNA cleavage [1]: pattern of bands characteristic for specific Top1 poisons

SMILES: CS(=O)(=O)O.Cc1oc2c(O)c3c(c(O)c2c1C(=O)N1CCN(C)CC1)C(=O)c1ccccc1C3=O [Compound 3l, 4,11-Dihydroxy-2-methyl-3-(4-methylpiperazine-1carbonyl)anthra [2,3-b]furan-5,10-dione methanesulfonate]
- water solubility of the salt [2]: water soluble mesylates

SMILES: COc1cccc2c1C(=O)c1c(O)c3c(c(O)c1C2=O)C[C@@](O)(C(=O)CO)C[C@@H]3O[C@H]1C[C@H](N)[C@H](O)[C@H](C)O1 [Compound 1, doxorubicin, reference compound]
- cell associated fluorescence (intracellular accumulation), K562 vs K562/4 [3]: increased to a much lesser extent

SMILES: CS(=O)(=O)O.Cc1oc2c(O)c3c(c(O)c2c1C(=O)N1CC[C@H](N)C1)C(=O)c1ccccc1C3=O [Compound 3d, (S)-3-(3-Aminopyrrolidine-1-carbonyl)-4,11-dihydroxy-2methylanthra [2,3-b]furan-5,10-dione methanesulfonate]
- Top1 mediated specific DNA cleavage [1]: poorly generated the specific DNA cleavage
- apoptotic (Annexin V+/PI−) events [4]: increased percentage of apoptotic
- cytotoxicity against donor peripheral blood lymphocytes [5]: no detectable cytotoxicity
- Top2 mediated plasmid DNA relaxation [6]: even at 40 μM a certain amount of relaxed plasmid DNA was detectable
- Top1 mediated relaxation of supercoiled plasmid DNA [7]: attenuated Top1 mediated relaxation of the supercoiled plasmid DNA in a dose dependent manner
- cell associated fluorescence (intracellular accumulation), K562 vs K562/4 [3]: increased similarly over time
- human protein kinases attenuated (IC50 < 5 μM) out of 364 [8]: 2.5%
- T/C, % ([9]; Table 3, n = 6, single 50 mg/kg i.p. daily days 1–5 (total 250 mg/kg)): death from drug toxicity
- toxicity at single dose of 50 mg/kg ([9]; single dose 50 mg/kg i.p. daily for 5 days (total 250 mg/kg)): lethally toxic
- general drug toxicity ([9]; single doses of 5–40 mg/kg i.p. daily for 5 days, during or after treatment): No signs of general drug toxicity

SMILES: COc1cc2c3c(n(CCCNCCO)c(=O)c2cc1OC)-c1cc2c(cc1C3=O)OCO2 [MJ–III–65]
- Top1 mediated specific DNA cleavage [1]: pattern of bands characteristic for specific Top1 poisons

SMILES: CS(=O)(=O)O.Cc1oc2c(O)c3c(c(O)c2c1C(=O)N1CC[C@@H](N)C1)C(=O)c1ccccc1C3=O [Compound 3c, (R)-3-(3-Aminopyrrolidine-1-carbonyl)-4,11-dihydroxy-2methylanthra [2,3-b]furan-5,10-dione methanesulfonate]
- Top1 mediated specific DNA cleavage [1]: poorly generated the specific DNA cleavage
- cytotoxicity against donor peripheral blood lymphocytes [5]: no detectable cytotoxicity
- Top2 mediated plasmid DNA relaxation [6]: even at 40 μM a certain amount of relaxed plasmid DNA was detectable
- Top1 mediated relaxation of supercoiled plasmid DNA [7]: attenuated Top1 mediated relaxation of the supercoiled plasmid DNA in a dose dependent manner
- cell associated fluorescence (intracellular accumulation), K562 vs K562/4 [3]: increased similarly over time

SMILES: O=C1c2ccccc2C(=O)c2c1c(O)c1[nH]cc(CN[C@@H]3CCNC3)c1c2O [Compound 2]
- Top1 mediated specific DNA cleavage [1]: cleaved some but not all these sites
- T/Cmax [10]: 155%
- IC50 [11]: 130 to 150 µM

SMILES: COc1cc([C@@H]2c3cc4c(cc3[C@@H](O[C@@H]3O[C@@H]5CO[C@@H](C)O[C@H]5[C@H](O)[C@H]3O)[C@H]3COC(=O)[C@H]23)OCO4)cc(OC)c1O [VP16, etoposide, reference compound]
- Top2 mediated plasmid DNA relaxation [6]: even at 200 μM of VP16 the DNA remained largely unwound
